# Reference: patent US20230414612A1, “PHARMACEUTICAL COMPOSITION COMPRISING A CAP-DEPENDENT ENDONUCLEASE INHIBITOR” (TaiGen Biotechnology Co., Ltd., priority 2022, published 2023)
# Assays:
# [1] = Dissolution assessment: solubility in FaSSIF; assay type: physicochemical
# Procedure: An amount of Compound A (about 6 mg) and amorphous solid dispersion (equivalent to around 6 mg Compound A) were weighed into an 8 ml bottle, and 6 ml FaSSIF (Fasted state simulated intestinal fluid) was added (target concentration 1.0 mg/ml). Then the suspensions were stirred at thermomixer at 37° C. under 600 rpm 200 μL of suspensions were withdrawn at setting time (such as 5 min) and then centrifuged at 14000 rpm for 4 min. After that, 100 μL of supernatant was diluted with CAN five times to prevent precipitation, and was analyzed by HPLC.
# FaSSIF was prepared by following steps: 1) Place 0.1024 g sodium hydroxide, 0.7518 g sodium dihydrogen phosphate anhydrous and 1.5470 g sodium chloride in a 250 mL volumetric flask, add about 225 mL water, and adjust the pH to 6.5 with 1N sodium hydroxide or 1N hydrochloric acid. Make up to volume (250 mL) with pure water. 2) Place and dissolve 0.4480 g SIF Powder Original with 100 mL of buffer (from step 1) in a 200 mL volumetric flask, add water to volume and mix well.
# [2] = system: influenza virus (A/PR/8/34); test: In vivo influenza virus infection mouse model (survival rate, body weight change); details: 5 mg/kg, oral, BALB/c mouse infected with A/PR/8/34
# Procedure: (§1) The term “therapeutically effective amount” refers to the amount or dose of an active compound or salt thereof that is sufficient to prevent development of, or alleviate to some extent, one or more of the symptoms of the disorder, disease, or condition being treated. […] In addition, the effect of Compound A on influenza virus growth in lungs of BALB/c mice infected with low infectious dose 100 pfu/mouse of A/PR/8/34 at one-day post-infection was conducted. […] Therefore, based on the results of these preliminary in vivo animal studies, it is estimated that the reasonable therapeutically effective amount of the compound of Formula (I) or a pharmaceutically acceptable salt thereof for human can be about 5-200 mg, about 5-150 mg, about 5-100 mg, about 10-80 mg, about 10-40 mg, about 10-30 mg, about 10-20 mg, about 5-10 mg, about 5-20 mg, about 20-40 mg, or about 40-80 mg. For example but not limited thereto, the therapeutically effective amount of the compound of Formula (I) or a pharmaceutically acceptable salt thereof is 5 mg, 10 mg, 15 mg, 20 mg, 25 mg, 30 mg, 35 mg, 40 mg, 45 mg, 50 mg, 55 mg, 60 mg, 65 mg, 70 mg, 75 mg, 80 mg, 85 mg, 90 mg, 95 mg, 100 mg, 105 mg, 110 mg, 115 mg, 120 mg, 125 mg, 130 mg, 135 mg, 140 mg, 145 mg, 150 mg, 155 mg, 160 mg, 165 mg, 170 mg, 175 mg, 180 mg, 185 mg, 190 mg, 195 mg, or 200 mg.
# [3] = system: influenza virus A/PR/8/34; test: Influenza virus growth in lungs of infected BALB/c mice; assay type: in vivo; details: 5 and 25 mg/kg; 100 pfu/mouse A/PR/8/34; one-day post-infection
# Procedure: as §1
# [4] = 14-day repeated-dose oral toxicity study; assay type: in vivo; details: 300 mg/kg/day
# Procedure: as §1
# [5] = Stability study of Compound A and amorphous solid dispersions (total impurity level, TRS %); assay type: physicochemical
# Procedure: The amorphous solid dispersions were stored at 4° C. (closed) or 40° C./75% RH (closed and open state). After 10 days or 4 weeks, samples were observed by camera, characterized by XRPD and analyzed by HPLC for purity as well as kinetic solubility. All the samples for closed storage conditions were put into clear glass vials with gaskets and screwed caps. All the samples for open storage conditions were put into clear glass vials with cap, while the month of vials was covered by aluminium foil with pinholes to avoid cross-contamination.
# The sample number in TABLE 2 corresponds to the sample number in TABLE 1.
structure (smiles),measurement,setting,value
"COC(=O)OCOc1c2n(ccc1=O)N([C@H]1c3ccccc3CSc3c1ccc(F)c3F)CC1(CC1)C2=O [Compound A, [1-((11S)-7,8-difluoro(6H,11H-dibenzo[c,f]thiepin-11-yl))-4,6-dioxospiro[1,2,3,9-tetrahydropyridino[1,2-e]pyridazine-3,1′-cyclopropane]-5-yloxy]methyl methoxyformate]","Solubility, 5 min","[1]; FaSSIF, 37° C., 600 rpm, target concentration 1.0 mg/ml, 5 min",4.95 µg/mL
same,"Solubility, 15 min","[1]; FaSSIF, 37° C., 600 rpm, target concentration 1.0 mg/ml, 15 min",4.89 µg/mL
same,aqueous solubility,[1]; statement in words,low aqueous solubility
same,antiviral efficacy on body weight change,[2],good antiviral efficacy
same,antiviral efficacy on survival rate,[2],good antiviral efficacy
same,Virus titers in lungs vs vehicle treated group,[3],significantly lower
same,deaths or toxic effect,[4],did not cause deaths or have toxic effect
same,4° C. Closed for 4 wks TRS %,"[5]; 4° C., closed, 4 weeks",0.76%
same,40° C./75% RH Closed for 4 wks TRS %,"[5]; 40° C./75% RH, closed, 4 weeks",0.86%
same,40° C./75% RH Open for 4 wks TRS %,"[5]; 40° C./75% RH, open, 4 weeks (cells without #)",0.82%
same,Initial TRS %,"[5]; initial, total relative substances by HPLC",0.79%
